Laboratory results published in publication PMC7041945, “Misfolded proteins bind and activate death receptor 5 to trigger apoptosis during unresolved endoplasmic reticulum stress” (eLife, 2020).

Test system: CHOP, BiP, and DR5 mRNA in HCT116 cells
Assay: qPCR of UPR target transcripts (CHOP, BiP, DR5)
Type: cell-based, Homo sapiens
Details: for 2^-(deltaCq) CHOP / 2^-(deltaCq) DR5 total / Cq CHOP / Cq DR5 total / Cq(sample) - avg Cq(GAPDH), CHOP / Cq(sample) - avg Cq(GAPDH), DR5 total / avg. fold induction CHOP / avg. fold induction DR5 total / fold induction CHOP / fold induction DR5 total: Rep 2; for avg. fold induction CHOP / avg. fold induction DR5 total / fold induction CHOP / fold induction DR5 total: vs 24 hr cytoGFP (empty traffo)
Experimental: Cells were grown in 6-well plates and harvested with 0.5 ml of TRIzol reagent (Life Technologies) per manufacturer’s protocol to extract RNA. For cDNA synthesis, 500 ng of total RNA was reverse transcribed with 2 μl of the SuperScript VILO master mix (Life Technologies # 11755050) in a total reaction volume of 10 μl following the manufacturer’s protocol for reaction temperature and duration. The reverse transcription product was diluted to 200 μl with 10 mM Tris-HCl pH 8.2 and used at 1:100 dilution for subsequent RT-PCR reactions.
PCR samples were prepared as described by manufacturer’s protocols from iQ SYBR Green Supermix (BioRad #17088800).
For each experiment, qRT-PCR reactions were set up in triplicate and run using a CFX96 Real Time System (Bio-Rad). Quantitation cycles were determined with CFX Manager 3.0 software (Bio-Rad) and then normalized to GAPDH as an internal control.

[1] = 1000 ng plasmid, sheet Rep 1, mean of 3 replicates

With “RHO-GFP: GFP-tagged rhodopsin expressed from plasmid” the “2^-(deltaCq) for GFP norm to GAPDH, avg” value (1000 ng plasmid, sheet Rep 1, mean) was 55.6234, the “BiP avg fold induction relative to empty traffo” value [1] was 1.525 and the “CHOP avg fold induction relative to empty traffo” value [1] was 2.086. For the same substance, the “DR5 total avg fold induction relative to empty traffo” value [1] was 1.336, the “GAPDH avg fold induction relative to empty traffo” value [1] was 1.003 and the “2^-(deltaCq) CHOP” value (3 hr, replicate 1) was 0.04356. For the same substance, the “2^-(deltaCq) DR5 total” value (3 hr, replicate 1) was 0.02287, the “Cq CHOP” value (3 hr, replicate 1) was 24.2586 and the “Cq DR5 total” value (3 hr, replicate 1) was 25.1882. The “Cq(sample) - avg Cq(GAPDH), CHOP” value (3 hr, replicate 1) was 4.521, the “Cq(sample) - avg Cq(GAPDH), DR5 total” value (3 hr, replicate 1) was 5.45 and the “2^-(deltaCq) CHOP” value (3 hr, replicate 2) was 0.03694. The “2^-(deltaCq) DR5 total” value (3 hr, replicate 2) was 0.02336, the “Cq CHOP” value (3 hr, replicate 2) was 24.4965 and the “Cq DR5 total” value (3 hr, replicate 2) was 25.1574. The “Cq(sample) - avg Cq(GAPDH), CHOP” value (3 hr, replicate 2) was 4.759, the “Cq(sample) - avg Cq(GAPDH), DR5 total” value (3 hr, replicate 2) was 5.42 and the “2^-(deltaCq) CHOP” value (3 hr, replicate 3) was 0.03617. The “2^-(deltaCq) DR5 total” value (3 hr, replicate 3) was 0.01987, the “Cq CHOP” value (3 hr, replicate 3) was 24.5271 and the “Cq DR5 total” value (3 hr, replicate 3) was 25.391. The “Cq(sample) - avg Cq(GAPDH), CHOP” value (3 hr, replicate 3) was 4.789, the “Cq(sample) - avg Cq(GAPDH), DR5 total” value (3 hr, replicate 3) was 5.653 and the “avg. fold induction CHOP” value (3 hr, mean of 3 replicates) was 1.784. For the same substance, the “avg. fold induction DR5 total” value (3 hr, mean of 3 replicates) was 0.7693, the “fold induction CHOP” value (3 hr, replicate 1) was 1.9981 and the “fold induction DR5 total” value (3 hr, replicate 1) was 0.7985. For the same substance, the “fold induction CHOP” value (3 hr, replicate 2) was 1.694, the “fold induction DR5 total” value (3 hr, replicate 2) was 0.8157 and the “fold induction CHOP” value (3 hr, replicate 3) was 1.659. For the same substance, the “fold induction DR5 total” value (3 hr, replicate 3) was 0.6938, the “2^-(deltaCq) CHOP” value (7 hr, replicate 1) was 0.1012 and the “2^-(deltaCq) DR5 total” value (7 hr, replicate 1) was 0.0421. For the same substance, the “Cq CHOP” value (7 hr, replicate 1) was 22.9621, the “Cq DR5 total” value (7 hr, replicate 1) was 24.2279 and the “Cq(sample) - avg Cq(GAPDH), CHOP” value (7 hr, replicate 1) was 3.304. For the same substance, the “Cq(sample) - avg Cq(GAPDH), DR5 total” value (7 hr, replicate 1) was 4.57, the “2^-(deltaCq) CHOP” value (7 hr, replicate 2) was 0.09032 and the “2^-(deltaCq) DR5 total” value (7 hr, replicate 2) was 0.04029. The “Cq CHOP” value (7 hr, replicate 2) was 23.1268, the “Cq DR5 total” value (7 hr, replicate 2) was 24.2914 and the “Cq(sample) - avg Cq(GAPDH), CHOP” value (7 hr, replicate 2) was 3.4688. The “Cq(sample) - avg Cq(GAPDH), DR5 total” value (7 hr, replicate 2) was 4.633, the “2^-(deltaCq) CHOP” value (7 hr, replicate 3) was 0.09401 and the “2^-(deltaCq) DR5 total” value (7 hr, replicate 3) was 0.03735. For the same substance, the “Cq CHOP” value (7 hr, replicate 3) was 23.069, the “Cq DR5 total” value (7 hr, replicate 3) was 24.4008 and the “Cq(sample) - avg Cq(GAPDH), CHOP” value (7 hr, replicate 3) was 3.411. The “Cq(sample) - avg Cq(GAPDH), DR5 total” value (7 hr, replicate 3) was 4.743, the “avg. fold induction CHOP” value (7 hr, mean of 3 replicates) was 4.366 and the “avg. fold induction DR5 total” value (7 hr, mean of 3 replicates) was 1.393. The “fold induction CHOP” value (7 hr, replicate 1) was 4.643, the “fold induction DR5 total” value (7 hr, replicate 1) was 1.47 and the “fold induction CHOP” value (7 hr, replicate 2) was 4.143. The “fold induction DR5 total” value (7 hr, replicate 2) was 1.407, the “fold induction CHOP” value (7 hr, replicate 3) was 4.312 and the “fold induction DR5 total” value (7 hr, replicate 3) was 1.304. The “2^-(deltaCq) CHOP” value (24 hr, replicate 1) was 0.04125, the “2^-(deltaCq) DR5 total” value (24 hr, replicate 1) was 0.04254 and the “Cq CHOP” value (24 hr, replicate 1) was 23.6176. For the same substance, the “Cq DR5 total” value (24 hr, replicate 1) was 23.5731, the “Cq(sample) - avg Cq(GAPDH), CHOP” value (24 hr, replicate 1) was 4.6 and the “Cq(sample) - avg Cq(GAPDH), DR5 total” value (24 hr, replicate 1) was 4.555. The “2^-(deltaCq) CHOP” value (24 hr, replicate 2) was 0.03991, the “2^-(deltaCq) DR5 total” value (24 hr, replicate 2) was 0.04129 and the “Cq CHOP” value (24 hr, replicate 2) was 23.6651. The “Cq DR5 total” value (24 hr, replicate 2) was 23.6162, the “Cq(sample) - avg Cq(GAPDH), CHOP” value (24 hr, replicate 2) was 4.647 and the “Cq(sample) - avg Cq(GAPDH), DR5 total” value (24 hr, replicate 2) was 4.598. The “2^-(deltaCq) CHOP” value (24 hr, replicate 3) was 0.039, the “2^-(deltaCq) DR5 total” value (24 hr, replicate 3) was 0.03658 and the “Cq CHOP” value (24 hr, replicate 3) was 23.6985. For the same substance, the “Cq DR5 total” value (24 hr, replicate 3) was 23.7909, the “Cq(sample) - avg Cq(GAPDH), CHOP” value (24 hr, replicate 3) was 4.681 and the “Cq(sample) - avg Cq(GAPDH), DR5 total” value (24 hr, replicate 3) was 4.773. For the same substance, the “avg. fold induction CHOP” value (24 hr, mean of 3 replicates) was 1.837, the “avg. fold induction DR5 total” value (24 hr, mean of 3 replicates) was 1.401 and the “fold induction CHOP” value (24 hr, replicate 1) was 1.892. For the same substance, the “fold induction DR5 total” value (24 hr, replicate 1) was 1.485.
